In publication PMC6271780, “Determination of Bioactive Components in Chinese Herbal Formulae and Pharmacokinetics of Rhein in Rats by UPLC-MS/MS” (Molecules, 2014):

Assays:
[1] = Comparative pharmacokinetics of rhein in rats after oral rhein, rhubarb or SHXXT (plasma, UPLC-MS/MS); assay type: in vivo, Sprague-Dawley rats
Description: All animal experimental protocols were reviewed and approved by the Institutional Animal Care and Use Committee (IACUC number: 1011202) of National Yang-Ming University. Male specific pathogen-free Sprague-Dawley rats were obtained from the Laboratory Animal Center of the National Yang-Ming University, Taipei, Taiwan. The animals had free access to food (laboratory rodent diet 5P14, PMI Feeds, Richmond, IN, USA) and water. For pharmacokinetic study, Sprague-Dawley rats weighing 220 ± 20 g were anesthetized with pentobarbital (50 mg/kg, i.p.) for cannulation. A polyethylene tube (PE50) was implanted into the left carotid artery for blood sampling. The cannula was exteriorized, fixed in the dorsal region of the neck. Patency of the tube was maintained by flushing with heparinized saline (20 IU/mL). After surgery, the rats were kept in cages individually and allowed to recover for one day. The dose of herbal formula for translation from human to animal is recommended by the US Food and Drug Administration guidelines as the following conversion equation : Human equivalent dose (HED, mg/kg) = animal dose (mg/kg) × (animal Km/human Km). Study on pharmacokinetics of rhein at 50, 100, and 200 mg in human (60 kg in adults) has been investigated, and therefore, rhein at 11.9 mg/kg was studied in this study according to the dose translation equation. Briefly, the pure compound rhein, the rhubarb extract, and the SHXXT formula suspended in water at doses of 11.9 mg/kg, 5.2 g/kg, and 5 g/kg were individually administered to rats by oral gavage. The doses of rhubarb extract and SHXXT extract were equivalent to rhein administration dose of 11.9 mg/kg. About 200 µL of blood samples was withdrawn from the cannula implanted in the carotid artery and placed into a heparin-rinsed vial at 0, 15, 30, 45, 60, 90, 120, 150, 180, 240, 300 and 360 min. The method of plasma sample preparation was slightly modified from the previous study. For quantitative analysis, the plasma sample (50 µL) was vortex-mixed with acetonitrile (100 µL) for protein precipitation. Data from these samples were used to construct the pharmacokinetic curve of rhein. The plasma sample was diluted by blank plasma sample at an appropriate ratio before analysis if the rhein concentration was excess 2500 ng/mL. Pharmacokinetic calculations were performed on each individual set of data using the pharmacokinetic software WinNonlin Standard Edition, version 1.1 (Pharsight Corp., Mountain View, CA, USA) by noncompartmental methods.

[2] = parameters: method as in PMID 21945452; details: Chinese healthy subjects, single oral administration, range 50–200 mg; cited from earlier work
[3] = parameters: method as in PMID 19737807; details: after SHXXT; cited from earlier work
[4] = parameters: method as in PMID 24214833; details: cited from earlier work; for detection in rat plasma, decoction group: after oral administration of SHXXT decoction; for detection in rat plasma, maceration group: after oral administration of SHXXT maceration
[5] = after oral administration of SHXXT
[6] = male, Sprague-Dawley, po, rhein in rat plasma, rhein 11.9 mg/kg, rhubarb 5.2 g/kg or SHXXT 5 g/kg (each equivalent to rhein 11.9 mg/kg), n = 6, mean ± SD
[7] = rhein in rat plasma, p.o., rhein 11.9 mg/kg, rhubarb 5.2 g/kg or SHXXT 5 g/kg (each equivalent to rhein 11.9 mg/kg), n = 6, mean ± SD

SMILES	free (unconjugated) form detected in rat plasma [1, 5]	detection in rat plasma, decoction group [4]	detection in rat plasma, maceration group [4]	further results
O=C(O)c1cc(O)c2c(c1)C(=O)c1cccc(O)c1C2=O [Rhein, 4,5-dihydroxy-9,10-dioxoanthracene-2-carboxylic acid]	existed in the free form	–	–	MRT ([1]; male, Sprague-Dawley, po, rhein in rat plasma, p.o., rhein 11.9 mg/kg, rhubarb 5.2 g/kg or SHXXT 5 g/kg (each equivalent to rhein 11.9 mg/kg), n = 6, mean ± SD, read-out: MRT (mean residence time) (converted)): 1.87 h; half-life ([1]; male, Sprague-Dawley, po, rhein in rat plasma, p.o., rhein 11.9 mg/kg, rhubarb 5.2 g/kg or SHXXT 5 g/kg (each equivalent to rhein 11.9 mg/kg), n = 6, mean ± SD, read-out: T1/2 (elimination half-life)): 2.4 ± 0.287 h; AUC [1, 6]: 3130 ng·h/mL; Cmax [1, 6]: 2450 ± 550 ng/mL; Tmax [1, 6]: 0.417 h; CL (total body clearance) [1, 7]: 58 ± 7.89 mL/min/kg; Vss (volume of distribution) [1, 7]: 12.2 ± 2.10 L/kg; dose linearity of pharmacokinetics [2]: linear pharmacokinetics
Cc1cc(O)c2c(c1)C(=O)c1cc(O)cc(O)c1C2=O [emodin]	not detected	–	–	forms determined in serum [3]: only the conjugated metabolites
O=c1cc(-c2ccccc2)oc2cc(O)c(O)c(O)c12 [baicalein]	not detected	–	–	forms determined in serum [3]: only the conjugated metabolites
O=C(O)[C@H]1O[C@@H](Oc2cc3oc(-c4ccccc4)cc(=O)c3c(O)c2O)[C@H](O)[C@@H](O)[C@@H]1O [baicalin]	not detected	–	–	–
COc1cc2c(cc1O)CC[n+]1cc3c(OC)c(OC)ccc3cc1-2 [jatrorrhizine]	–	detected	absent	–
COc1ccc2cc3[n+](cc2c1OC)CCc1cc2c(cc1-3)OCO2 [berberine]	not detected	detected	absent	–
COc1cc2c(cc1OC)-c1cc3ccc(OC)c(OC)c3c[n+]1CC2 [palmatine]	–	detected	absent	free (unconjugated) form detected in rat plasma ([1]; rat, in vivo, po): not detected
c1c2c(cc3c1OCO3)-c1cc3ccc4c(c3c[n+]1CC2)OCO4 [coptisine]	–	detected	absent	–
